From US11213567B2, “ZAG-derived peptide and use thereof” (L&C Bio Co., LTD., priority 2017, dated 2022)

Assays:
IL-4 = experiment: Atopic dermatitis efficacy test using T lymphocytes: IL-4 released after IL-2, ELISA; assay type: cell-based, human; set-up: key to T lymphocyte (human) IL-4: •: have statistical significance, determining as effective, compared with the positive control; details: for IL-4: Example 2-5, FIG. 2E, compared with positive control (Pos); for IL-4 / IL-4 concentration released in cell culture medium: T lymphocytes, 1 μg/mL 24 hours; for T lymphocyte (human) IL-4: 1 μg/mL for 24 hours, then IL-2 50 ng/mL 12 hours; for IL-4 concentration released in cell culture medium: Example 1-5, FIG. 1E, IL-2 50 ng/mL 12 hours
Method: (§1) To select an amino acid sequence corresponding to a key active site of ZAG having efficacy in the alleviation of atopic symptoms from 18 peptide candidate groups, an atopic dermatitis efficacy test was performed. Five types of immune-related cells were treated with ZAG peptide candidate groups (Z1-Z18, SEQ ID NOs: 1 to 18, respectively) and the ZAG protein (Z0, SEQ ID NOs: 19) at a concentration of 1 μg/mL for 24 hours, and then treated with a stimulator suitable for each cell line for the listed time to confirm an immune response. The experiment was performed with a group treated with only a stimulator as a positive control experimental group, and a group treated with only a vehicle without a stimulator as a negative control experimental group (Table 2: Efficacy test method for atopic dermatitis). An inflammatory response-related enzyme used as a stimulator is produced by immune cells, and histamine initiates an inflammatory response. The immune cells migrating to a damaged region release cytokines such as tumor necrosis factor-α (TNF-α) and interleukin-6 (IL-6) to directly lyse foreign invasive substances or collect other immune cells to initiate an inflammatory response. An efficacy test using inflammation-inducing materials, interferon-γ and skin inflammation-related factor CCL-17/thymus- and activation-regulated chemokine (TARC) was also performed to confirm an immune response.
An atopic dermatitis efficacy test using T lymphocytes was performed with six peptide candidate groups (Z3, Z4, Z5, Z12, Z14, and Z15), which were determined to have efficacy from the results of Examples 1-1 to 1-4 described above. T lymphocytes were treated with 50 ng/mL of IL-2 as a stimulator for 12 hours, and a concentration of IL-4 released in a cell culture medium was confirmed by ELISA assay.
(§2) Various types of immune cells were treated with each of Z20mer-1, Z20mer-2, Z20mer-3, Z15mer-1, Z15mer-2, Z15mer-3 and Z15mer-4 at a concentration of 1 μg/mL for 24 hours, and then treated with a stimulator suitable for each cell line for the listed time to confirm an immune response. The atopic dermatitis efficacy test method was performed by the same method as described in Example 1 and Table 2.
(§3) The experiment was performed with experimental groups: 1) negative control: vehicle-treated group (Neg), 2) positive control: a group treated with only a stimulator (Pos), and 3) experimental group: groups treated with a stimulator and ZAG3 or a ZAG3-derived oligopeptide (Z20mer-1, Z20mer-2, Z20mer-3, Z15mer-1, Z15mer-2, Z15mer-3 or Z15mer-4). Concentrations were measured from cell culture by ELISA.
An experiment was performed on T lymphocytes using the target peptides selected through the previous experiment. As compared with the positive control (Pos), in all of the oligopeptide-treated groups (Z20mer-1, Z20mer-2, Z20mer-3, Z15mer-1, Z15mer-2, Z15mer-3, and Z15mer-4), IL-4 was reduced (FIG. 2E).

IgE = experiment: Atopic dermatitis efficacy test using B lymphocytes (RPMI 1788): IgE released after LPS, ELISA; assay type: cell-based, human; set-up: key: •: have statistical significance, determining as effective, compared with the positive control; details: then LPS 0.1 μg/mL 24 hours
Method: as §1
B lymphocytes (RPMI 1788) were treated with 0.1 μg/mL of LPS as a stimulator for 24 hours, and a concentration of IgE released in a cell culture medium was confirmed by ELISA assay.
as §2, §3
B lymphocytes (RPMI 1788) were treated with 0.1 μg/mL of LPS as a stimulator for 24 hours, and then a concentration of IgE released in a cell culture medium was confirmed by ELISA assay. As compared with the positive control (Pos), in all of the oligopeptide-treated groups, IgE was reduced (FIG. 2D).

IL-6 = experiment: Atopic dermatitis efficacy test using macrophages (RAW 264.7): IL-6 released after LPS, ELISA; assay type: cell-based, mouse; set-up: key to RAW 264.7 (mouse) IL-6: •: have statistical significance, determining as effective, compared with the positive control; details: for IL-6 concentration released in cell culture medium: Example 2-1, FIG. 2A, RAW 264.7, 1 μg/mL 24 hours, LPS 0.1 μg/mL 24 hours, compared with positive control (Pos); for RAW 264.7 (mouse) IL-6: 1 μg/mL for 24 hours, then LPS 0.1 μg/mL 24 hours
Method: as §1
Macrophages (RAW 264.7 cells) were treated with a stimulator LPS at a concentration of 0.1 μg/mL for 24 hours, and then the concentration of IL-6 released in a cell culture medium was confirmed by ELISA assay.
as §2, §3
Macrophages (RAW 264.7 cells) were treated with a stimulator LPS at a concentration of 0.1 μg/mL for 24 hours, and then a concentration of IL-6 released in a cell culture medium was confirmed by ELISA assay.

Histamine = experiment: Atopic dermatitis efficacy test using mast cells (RBL-2H3): histamine released after PMA and A23187, ELISA; assay type: cell-based, rat; set-up: key: •: have statistical significance, determining as effective, compared with the positive control; details: 1 μg/mL for 24 hours, then PMA 1 μg/mL, A23187 1 μg/mL 12 hours
Method: as §1
Mast cells (RBL-2H3) were treated with 1 μg/mL of PMA and 1 μg/mL of A23187 as stimulators for 12 hours, and a concentration of histamine released in a cell culture medium was confirmed by ELISA assay.
as §2, §3
Mast cells (RBL-2H3) were treated with 1 μg/mL of PMA and 1 μg/mL of A23187 as simulators for 12 hours, and then a concentration of histamine released in a cell culture medium was confirmed by ELISA assay. As compared with the positive control (Pos), in all of the oligopeptide-treated groups, the histamine release was reduced (FIG. 2B).

CCL17/TARC = experiment: Atopic dermatitis efficacy test using keratinocytes (HaCaT): CCL17/TARC released after TNF-α and IFN-γ, ELISA; assay type: cell-based, human; set-up: key to HaCaT (human) CCL17/TARC: •: have statistical significance, determining as effective, compared with the positive control; details: for HaCaT (human) CCL17/TARC: 1 μg/mL for 24 hours, then TNF-α 0.4 μg/mL, IFN-γ 0.4 μg/mL 24 hours
Method: as §1
Keratinocytes (HaCaT cells) were treated with 0.4 μg/mL of TNF-α and 0.4 μg/mL of IFN-γ as stimulators for 24 hours, and then a concentration of CCL17/TARC released in a cell culture medium was confirmed by ELISA assay.
as §2, §3

[1] = Table 5, 1 μg/mL for 24 hours, vs positive control
[2] = Table 3, 1 μg/mL for 24 hours, vs stimulator only

| Substance | IL-4 (IL-4) | T lymphocyte (human) IL-4 (IL-4; Table 5, vs positive control) | B lymphocyte (human) IgE (IgE; [1]) | RBL-2H3 (rat) Histamine (Histamine; Table 5, vs positive control) | RBL-2H3 (rat) Histamine (Histamine; Table 3, vs stimulator only) | HaCaT (human) CCL17/TARC (CCL17/TARC; Table 3, vs stimulator only) | B lymphocyte (human) IgE (IgE; [2]) | further results |
| --- | --- | --- | --- | --- | --- | --- | --- | --- |
| Z15mer-1: ZAG3-derived oligopeptide, SEQ ID NO. 23: EDWKQDSQLQKARED (ZAG protein-derived peptide) | reduced | • | • | • | – | – | – | IL-6 concentration released in cell culture medium (IL-6): significantly decreased; RAW 264.7 (mouse) IL-6 (IL-6; Table 5, vs positive control): • |
| Z9: ZAG protein-derived peptide, SEQ ID NO. 9: TYQSWVVVAVPPQDTAPYSCHVQHSSLAQP (listed as Homo sapiens) | – | – | – | – | • | – | – | RAW 264.7 (mouse) IL-6 (IL-6; Table 3, vs stimulator only): • |
| Z1: ZAG protein-derived peptide, SEQ ID NO. 1: QENQDGRYSLTYIYTGLSKHVEDVPAFQAL (ZAG protein-derived peptide) | – | – | – | – | • | • | – | RAW 264.7 (mouse) IL-6 (IL-6; Table 3, vs stimulator only): • |
| Z17: ZAG protein-derived peptide, SEQ ID NO. 17: QEPELRGDVLHNGNGTYQSWVVVAVPPQDT (ZAG protein-derived peptide) | – | – | – | – | • | – | • | – |
| Z2: ZAG protein-derived peptide, SEQ ID NO. 2: GSLNDLQFFRYNSKDRKSQPMGLWRQVEGM (ZAG protein-derived peptide) | – | – | – | – | • | • | – | RAW 264.7 (mouse) IL-6 (IL-6; Table 3, vs stimulator only): • |
| Z20mer-2: ZAG3-derived oligopeptide, SEQ ID NO. 21: DSQLQKAREDIFMETLKDIV (ZAG protein-derived peptide) | reduced | • | • | • | – | – | – | – |
| Z11: ZAG protein-derived peptide, SEQ ID NO. 11: RKSQPMGLWRQVEGMEDWKQDSQLQKARED (ZAG protein-derived peptide) | – | – | – | – | • | – | – | – |
| Z10: ZAG protein-derived peptide, SEQ ID NO. 10: GLSKHVEDVPAFQALGSLNDLQFFRYNSKD (ZAG protein-derived peptide) | – | – | – | – | • | • | – | RAW 264.7 (mouse) IL-6 (IL-6; Table 3, vs stimulator only): • |
| Z15mer-2: ZAG3-derived oligopeptide, SEQ ID NO. 24: DSQLQKAREDIFMET (ZAG protein-derived peptide) | reduced | • | • | • | – | – | – | IL-6 concentration released in cell culture medium (IL-6): significantly decreased; RAW 264.7 (mouse) IL-6 (IL-6; Table 5, vs positive control): • |
| Z12: ZAG protein-derived peptide, SEQ ID NO. 12: PFDPAAQITKQKWEAEPVYVQRAKAYLEEE (ZAG protein-derived peptide) | – | – | – | – | – | • | • | IL-4 concentration released in cell culture medium (IL-4): significantly decreased; T lymphocyte (human) IL-4 (IL-4; Table 3, vs stimulator only): • |
| Z18: ZAG protein-derived peptide, SEQ ID NO. 18: AVPPQDTAPYSCHVQHSSLAQPLVVPWEAS (ZAG protein-derived peptide) | – | – | – | – | • | • | • | – |
| Z16: ZAG protein-derived peptide, SEQ ID NO. 16: APGEKKKLKCLAYDFYPGKIDVHWTRAGEV (ZAG protein-derived peptide) | – | – | – | – | – | – | • | T lymphocyte (human) IL-4 (IL-4; Table 3, vs stimulator only): • |
| Z20mer-3: ZAG3-derived oligopeptide, SEQ ID NO. 22: KAREDIFMETLKDIVEYYND (ZAG protein-derived peptide) | reduced | • | • | • | – | – | – | IL-6 concentration released in cell culture medium (IL-6): significantly decreased; RAW 264.7 (mouse) IL-6 (IL-6; Table 5, vs positive control): • |
| Z15: ZAG protein-derived peptide, SEQ ID NO. 15: ENNRSSGAFWKYYYDGKDYIEFNKEIPAWV (listed as Homo sapiens) | – | – | – | – | • | – | – | IL-4 concentration released in cell culture medium (IL-4): significantly decreased |
| Z20mer-1: ZAG3-derived oligopeptide, SEQ ID NO. 20: EDWKQDSQLQKAREDIFMET (ZAG protein-derived peptide) | reduced | • | • | • | – | – | – | CCL17/TARC concentration released in cell culture medium (CCL17/TARC; Example 2-3, FIG. 2C, HaCaT, 1 μg/mL 24 hours, TNF-α 0.4 μg/mL and IFN-γ 0.4 μg/mL 24 hours, compared with positive control (Pos)): significantly decreased; HaCaT (human) CCL17/TARC (CCL17/TARC; Table 5, vs positive control): • |
| Z13: ZAG protein-derived peptide, SEQ ID NO. 13: CPATLRKYLKYSKNILDRQDPPSVVVTSHQ (ZAG protein-derived peptide) | – | – | – | – | – | • | • | – |
